Data taken from publication PMC9737847, “Complex Formation between Cytochrome c and a Tetra-alanino-calix[4]arene” (International Journal of Molecular Sciences, 2022).

Molecular target: T1, cytochrome c (Saccharomyces cerevisiae, UniProt P00044, C108T)
T1 construct: gene CYC1; 15N-labeled cytochrome c C102T, residues numbered from -5 to 103
Test: 1H-15N HSQC NMR titration, […] binding model, […] °C, pH […]

T1 sequence (P00044 2-109 C108T): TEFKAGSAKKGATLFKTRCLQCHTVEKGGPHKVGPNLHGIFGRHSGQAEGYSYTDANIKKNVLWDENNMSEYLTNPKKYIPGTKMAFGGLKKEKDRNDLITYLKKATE

**Q.** For `C[C@H](NC(=O)c1cc2c3c(c1)Cc1cc(C(=O)N[C@@H](C)C(=O)O)cc4c1OCCOCCOc1c(cc(C(=O)N[C@@H](C)C(=O)O)cc1Cc1cc(C(=O)N[C@@H](C)C(=O)O)cc(c1OCCOCCO3)C2)C4)C(=O)O` [compound 1, Tetra-alanino-calix[4]arene-biscrown-3], which Kd is on record?
**A.** The Kd was about 400 µM.
